Assays:
[1] = system: Rasless MEFs; assay: Cell viability of rescued Rasless MEFs; assay type: cell-based, mouse
Procedure: (§1) The dead cells were removed, and MTS assay (Promega, G5430) was performed for determining the percentage of viable cells, according to the manufacturer's instructions. DMSO was used as vehicle control and for normalization.

[2] = system: PANC1 or PANC2.13; assay: Established subcutaneous human pancreatic xenograft tumors; assay type: in vivo, mouse
Procedure: (§2) The drug was daily administrated into either NOD-SCID or athymic nude mice by oral gavages (OG) at 1 mg/kg or intraperitoneal (I.P) injection at 0.5 mg/kg. 10% DMSO, 10% cremophor, and 80% saline solutions were used as the solvent and vehicle control.

[3] = system: HIV-1; settings: cited from earlier work
[4] = system: PANC2.13 and PANC1 orthotopic tumors; assay: Prevention of orthotopic human pancreatic tumors in NOD-SCID mice; assay type: in vivo, mouse
Procedure: as §2

[5] = system: PANC1 and PANC2.13; assay: Morphology, viability and proliferating rate of human pancreatic cancer cell lines; assay type: cell-based
Procedure: as §1

[6] = system: K-Ras and CaM interaction; assay: CaM pull-down assay of K-Ras/calmodulin interaction; assay type: cell-based; settings: Ras^V12-transformed cells and multiple human pancreatic cancer cell lines (FIG. 5H)
[7] = human pancreatic cancer cells (FIG. 14A right)

CC(=O)O[C@@]12C[C@@H](C)[C@@]3(O)C(C=C(CO)C[C@]4(O)C(=O)C(C)=C[C@@H]34)[C@@H]1C2(C)C (stereo partly drawn) [prostratin, 12-deoxyphorbol-13-acetate]
cell viability response ([1]; Rasless MEFs rescued with H-Ras^V12 (FIG. 13C)): minimal responses
cell viability ([1]; Rasless MEFs rescued with K-Ras(4B)^V12 (FIG. 13C)): decreased cell viability
expression of cleaved caspase 3 in subcutaneous tumors ([2]; FIG. 14D): enhanced expression of cleaved caspase 3
growth rate of established subcutaneous tumors ([2]; daily oral treatment from 10 to 14 days post-injection, vs vehicle (FIG. 7A)): significantly reduced growth rate
CD4 receptor ([3]; literature): down-regulating the CD4 receptor
reactivation of latent HIV-1 ([3]; memory CD4+ T cells that harbor latent proviruses): reactivates HIV-1
sizes of orthotopic tumors by BLI ([4]; FIG. 6E and FIG. 14B): dramatically reduced the sizes of orthotopic tumors
metastasis to the peritoneum ([4]; FIG. 6E and FIG. 14C): reduced metastasis to the peritoneum
formation of primary tumors in the pancreas (H&E staining) ([4]; FIG. 6F and FIG. 14B): most of prostratin treated mice did not show formation of primary tumors in the pancreas
Ki67 in orthotopic tumors ([4]; FIG. 6G and FIG. 14B): much lower Ki67
tumor burden in the orthotopic sites ([4]; NOD-SCID mice, daily oral treatment, vs control): lower tumor burden
cell morphology ([5]; human pancreatic cancer cell lines with mutant K-Ras (FIG. 14A left)): cell morphological changes phenocopying those observed with knock-down of K-Ras or over-expression of Fzd8
cell viability [5, 7]: significantly reduced cell viability
proliferating rate [5, 7]: significantly reduced
endogenous interaction between K-Ras and CaM [6]: abolished the endogenous interaction between K-Ras and CaM
